Legend:
[1] = tested on: HT29 human colorectal carcinoma; experiment: HT29 xenograft, tumor growth and necrosis after tTF constructs and Factor VIIa; type: in vivo, mouse
[2] = tested on: 2F2B mouse endothelial cells; experiment: Binding of tTF to endothelial cells (FACS, cell bound coagulation assay); type: cell-based
Description: Cells were washed and coagulation factor mix (as described above) was added. S2765 substrate was added and Factor Xa generation was measured as described above.
2F2B cells were stimulated with LPS (20 μg/ml) or TNFα (500 U/ml) for 4 h at 37° C. […] Fluorescent cells were detected on a flow cytometer (Becton Dickinson, San Jose, Calif.).

[3] = Clinical signs of toxicity and histology of normal organs in treated tumor-bearing mice; type: in vivo, mouse; conditions: for Symptoms: tTF alone (4 μg i.v.), no endotoxin
Description: (§1) Mice were closely observed after treatment for clinical signs of toxicity and clinical status was documented at defined time points (5 minutes, 10 minutes, 15 minutes, 30 minutes. 1 hour. 2 hours, 24 hours, 48 hours, 72 hours). Blood samples were taken from the tail vein at 1 hour, 2 hours and 24 hours to measure TNFα blood levels. Three days after treatment, the mice were anesthetized, blood samples were taken from the vena cava for coagulation tests, and an autopsy was performed to document any changes in gross pathology. Tumors, lymph node metastases and the major normal organs (heart, lung, brain, liver, kidney, colon, spleen, pancreas) were harvested and prepared for histological analysis.
Tissue samples harvested at the time of autopsy were fixed in 3% NBF (normal buffered formalin) and embedded in paraffin wax. Tissue blocs were cut, dewaxed and stained with hematoxilin and eosin (H&E). Tissue sections were analyzed on a light microscope by two independent investigators and histological findings were documented. Tumor sections with necrotic areas were scanned with a GS-700 imaging densitometer (Biorad, Hercules, Calif.) and areas of necrosis were calculated as % of total section area. Statistical Analysis was performed using SPSS software (SPSS Science Software, Erkrath, Germany) applying the Mann-Whitney-U-test for ungrouped data.

[4] = tested on: C1300 mouse neuroblastoma; experiment: In vivo tumor thrombosis, C1300
From the text: Tumor test systems were of four types: i) 3LL mouse lung carcinoma growing subcutaneously in C57BL/6 mice; ii) C1300 mouse neuroblastoma growing subcutaneously in BALB/c nu/nu mice; iii) HT29 human colorectal carcinoma growing subcutaneously in BALB/c nu/nu mice; and iv) C1300 Muγ mouse neuroblastoma growing subcutaneously in BALB/c nu/nu mice. The C1300 Muγ tumor is an interferon-y secreting transfectant derived from the C 1300 tumor (Watanabe et al., 1989).
To establish tumors, 10^6 to 1.5×10^7 tumor cells were injected subcutaneously into the right anterior flank of the mice. When tumors had grown to various sizes, mice were randomly assigned to different study groups. […] Fab′, or bispecific antibody. Other mice received equivalent quantities IgG, Fab′ or bispecific antibody alone. The injections were performed slowly into one of the tail veins over approximately 45 seconds, usually followed by 200 μl of saline.
Twenty-four hours after being injected with tTF or immunoglobulin-tTF conjugates, the mice were anesthetized with metophane and were exsanguinated by perfusion with heparinized saline. Tumors and normal tissues were excised and immediately fixed in 3% (v/v) formalin. Paraffin sections were cut and stained with hematoxylin and eosin. Blood vessels having open lumens containing erythrocytes and blood vessels containing thrombi were counted. […]

immobilized tTF = molecular target: T1, immobilized tTF (Homo sapiens, UniProt P13726); experiment: Real time binding of tTF to immobilized tTF (surface plasmon resonance); conditions: tTF 30 μg/ml alone or preincubated with endotoxin or factor VIIa
T1 construct: amino acid 1-219 of the mature protein; made in house; host or cells: E. coli
T1 sequence (P13726 33-251): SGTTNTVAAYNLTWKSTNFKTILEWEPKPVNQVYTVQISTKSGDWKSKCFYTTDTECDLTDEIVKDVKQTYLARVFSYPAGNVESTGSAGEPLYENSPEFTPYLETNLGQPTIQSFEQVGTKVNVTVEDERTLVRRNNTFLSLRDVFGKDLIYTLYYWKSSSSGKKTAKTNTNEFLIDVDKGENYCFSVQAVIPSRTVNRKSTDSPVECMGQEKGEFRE

[5] = tested on: thrombin-antithrombin-complexes (TAT), antithrombin III (ATIII); experiment: Coagulation parameters in plasma three days after treatment; type: in vivo, mouse; conditions: tTF alone; plasma three days after i.v. treatment
[6] = tested on: H460 human non-small cell lung carcinoma; experiment: Anti-tumor effects, H460; type: in vivo, mouse; conditions: second treatment at 900 mm^3
Description: The tumor test systems were: i) L540 human Hodgkin's disease tumors growing in SCID mice; ii) C1300 Muγ (interferon-secreting) neuroblastoma growing in nu/nu mice; iii) H460 human non-small cell lung carcinoma growing in nu/nu mice. To establish solid tumors, 1.5×10^7 tumor cells were injected subcutaneously into the right anterior flank of SCID or BALB/c nu/nu mice (Charles River Labs., Wilmingham, Mass.). When the tumors had grown to various diameters, mice were assigned to different experimental groups, each containing 4 to 9 mice.
Other mice received equivalent quantities of bispecific antibody alone. The injections were performed over ˜45 seconds into one of the tail veins, followed by 200 μl of saline. The infusions were repeated six days later. Perpendicular tumor diameters were measured at regular intervals and tumor volumes were calculated.

A20 lymphoma cells = experiment: In vitro coagulation assay on A20 cells; type: cell-based, mouse
TNFα = TNFα serum levels in treated animals; type: in vivo, mouse; conditions: tTF containing no endotoxin (n=6), 1, 2 and 24 hours
Description: as §1
TNFα levels in serum were determined using the Quantikine-M kit (R&D Systems, Minneapolis, Minn.) according to the manufacturer's instructions.

[7] = tested on: C1300 Muγ mouse neuroblastoma; experiment: C1300 (Muγ) tumor model, coaguligand and tTF: thrombosis and anti-tumor effects; type: in vivo
[8] = tested on: L540 human Hodgkin's tumors; experiment: Anti-VCAM-1•tTF coaguligand in L540 tumor-bearing mice; type: in vivo, mouse
Description: Before coaguligand injection, tumors were viable, having a uniform morphology lacking regions of necrosis. […] Within four hours of coaguligand injection, 40-70% of blood vessels were thrombosed, despite the initial staining of only 20-30% of tumor blood vessels. The thrombosed vessels contained occlusive platelet aggregates, packed erythrocytes and fibrin. In several regions, the blood vessels had ruptured, spilling erythrocytes into the tumor interstitium.
The drug was administered i.v. 3 times at intervals of 4 days.

With “tTF: extracellular domain of the mature Tissue Factor protein (amino acid 1-219), recombinant truncated human Tissue Factor” the “duration of discontinued growth after treatment” value ([1]; large (1200 mm^3) tumors) was “about 7 days”, the “average area of necrosis in tumor sections” value ([1]; mouse, in vivo, iv) was “some necrosis” and the “binding to endothelial cells expressing tissue factor” value [2] was “no binding”. For the same substance, the “histology of normal organs” value ([3]; light microscopy, three days after treatment) was “No histological abnormalities were seen”, the Symptoms ([3]; listed as TTF) was “None” and the Symptoms ([3]; listed as endotoxin-free tTF) was “no clinical signs of toxicity”. The “thrombosis of tumor vessels” value ([4]; large tumors (>1000 mm^3), 24 hours after injection) was “virtually all vessels were thrombosed”, the “effect on tumor vessels” value ([4]; small (<500 mm^3) tumors) was “largely unaffected” and the “binding to immobilized tTF” value (immobilized tTF) was “did not bind to or homodimerize with immobilized tTF”. The “TAT” value [5] was 25.4 ng/mL, the “tumor volume after second treatment” value [6] was 550 mm^3 and the “increase in coagulation-inducing potency” value (A20 lymphoma cells; 0.1 nM Factor VIIa) was 2-5 fold. The plasma coagulation time (A20 lymphoma cells; 10^−10 M tTF219, 13.5 nM Factor VIIa) was 20 s, the plasma coagulation time (A20 lymphoma cells; 10^−10 M tTF219, absence of Factor VIIa) was 60 s and the “concentration at which plasma coagulated in 50 seconds” value (A20 lymphoma cells; localized on A20 cells via bispecific antibody B21-2/10H10) was 3 nM. The “time to visible fibrin strands” value (A20 lymphoma cells; tTF bound to A20 cells by B21-2/10H10, mouse plasma, untreated cells 164 seconds) was 36 s, the TNFα serum level (TNFα) was “could not be detected” and the “thrombosis of tumor vessels” value ([7]; 24 hours after injection of tTF219) was “practically all vessels in all regions of the tumor were thrombosed”. The “thrombi or morphological abnormalities in normal organs” value ([7]; paraffin sections 30 minutes to 24 hours after administration) was “neither thrombi, nor histological or morphological abnormalities were visible”, the “effect on tumor vessels” value ([7]; small (<500 mm^3) tumors) was “largely unaffected” and the “tumor growth versus antibodies or saline alone” value ([7]; tTF alone or mixed with control bispecific antibodies) was “grew significantly more slowly”. The “control reagents that caused thrombosis” value ([8]; equivalent quantities) was “None” and the “effect on tumor growth” value ([8]; i.v. 3 times at intervals of 4 days) was “did not affect tumor growth”.

— patent publication US20030211075A1 (priority 2001, published 2003)
